Experimental data: patent US9227959B2, “Ethynyl derivatives” (Hoffmann-La Roche Inc., priority 2012, dated 2016)

Columns and labels:
[1] = biological target: T1, human mGlu5a receptor (Homo sapiens (Human), UniProt P41594); assay: Intracellular Ca2+ mobilization assay (mGlu5 PAM assay); assay type: cell-based; conditions: for EC50 (nM) mGlu5 PAM assay / mGlu5 PAM EC50 [nM]: HEK-293 cells with human mGlu5a, L-glutamate at EC20; for Activity profile: PAM = positive allosteric modulator, NAM = negative allosteric modulator; for Efficacy [%]: maximal response in % of maximal stimulatory effect of saturating L-glutamate
Procedure: A monoclonal HEK-293 cell line stably transfected with a cDNA encoding for the human mGlu5a receptor was generated; for the work with mGlu5 Positive Allosteric Modulators (PAMs), a cell line with low receptor expression levels and low constitutive receptor activity was selected to allow the differentiation of agonistic versus PAM activity. Cells were cultured according to standard protocols (Freshney, 2000) in Dulbecco's Modified Eagle Medium with high glucose supplemented with 1 mM glutamine, 10% (vol/vol) heat-inactivated bovine calf serum, Penicillin/Streptomycin, 50 μg/ml hygromycin and 15 μg/ml blasticidin (all cell culture reagents and antibiotics from Invitrogen, Basel, Switzerland).
About 24 hrs before an experiment, 5×10^4 cells/well were seeded in poly-D-lysine coated, black/clear-bottomed 96-well plates. The cells were loaded with 2.5 μM Fluo-4AM in loading buffer (1×HBSS, 20 mM HEPES) for 1 hr at 37° C. and washed five times with loading buffer. The cells were transferred into a Functional Drug Screening System 7000 (Hamamatsu, Paris, France), and 11 half logarithmic serial dilutions of test compound at 37° C. were added and the cells were incubated for 10-30 min. with on-line recording of fluorescence. Following this pre-incubation step, the agonist L-glutamate was added to the cells at a concentration corresponding to EC20 (typically around 80 μM) with on-line recording of fluorescence; in order to account for day-to-day variations in the responsiveness of cells, the EC20 of glutamate was determined immediately ahead of each experiment by recording of a full dose-response curve of glutamate.
Responses were measured as peak increase in fluorescence minus basal (i.e. fluorescence without addition of L-glutamate), normalized to the maximal stimulatory effect obtained with saturating concentrations of L-glutamate. Graphs were plotted with the % maximal stimulatory using XLfit, a curve fitting program that iteratively plots the data using Levenburg Marquardt algorithm. The single site competition analysis equation used was y=A+((B−A)/(1+((x/C)D))), where y is the % maximal stimulatory effect, A is the minimum y, B is the maximum y, C is the EC50, x is the log 10 of the concentration of the competing compound and D is the slope of the curve (the Hill Coefficient). From these curves the EC50 (concentration at which half maximal stimulation was achieved), the Hill coefficient as well as the maximal response in % of the maximal stimulatory effect obtained with saturating concentrations of L-glutamate were calculated.
A depression of the signal observed after addition of the EC20 concentration of L-glutamate was indicative of an inhibitory activity of the test compound.

[2] = biological target: T1, human mGlu5a receptor; assay: MPEP binding assay; conditions: [3H]MPEP 2 nM, 1 h at 4° C., EBNA cell membranes
Procedure: For binding experiments, cDNA encoding human mGlu 5a receptor was transiently transfected into EBNA cells using a procedure described by Schlaeger and Christensen [Cytotechnology 15:1-13 (1998)]. Cell membrane homogenates were stored at −80° C. until the day of assay where upon they were thawed and resuspended and polytronised in 15 mM Tris-HCl, 120 mM NaCl, 100 mM KCl, 25 mM CaCl2, 25 mM MgCl2 binding buffer at pH 7.4 to a final assay concentration of 20 μg protein/well.
Saturation isotherms were determined by addition of twelve [^3H]MPEP concentrations (0.04-100 nM) to these membranes (in a total volume of 200 μl) for 1 h at 4° C. Competition experiments were performed with a fixed concentration of [^3H]MPEP (2 nM) and IC50 values of test compounds evaluated using 11 concentrations (0.3-10,000 nM). Incubations were performed for 1 h at 4° C.
At the end of the incubation, membranes were filtered onto unifilter (96-well white microplate with bonded GF/C filter preincubated 1 h in 0.1% PEI in wash buffer, Packard BioScience, Meriden, Conn.) with a Filtermate 96 harvester (Packard BioScience) and washed 3 times with cold 50 mM Tris-HCl, pH 7.4 buffer. Nonspecific binding was measured in the presence of 10 μM MPEP. The radioactivity on the filter was counted (3 min) on a Packard Top-count microplate scintillation counter with quenching correction after addition of 45 μl of microscint 40 (Canberra Packard S. A., Zürich, Switzerland) and shaking for 20 min.

T1 sequence (P41594 other isoform, or with tags, fused parts or gaps): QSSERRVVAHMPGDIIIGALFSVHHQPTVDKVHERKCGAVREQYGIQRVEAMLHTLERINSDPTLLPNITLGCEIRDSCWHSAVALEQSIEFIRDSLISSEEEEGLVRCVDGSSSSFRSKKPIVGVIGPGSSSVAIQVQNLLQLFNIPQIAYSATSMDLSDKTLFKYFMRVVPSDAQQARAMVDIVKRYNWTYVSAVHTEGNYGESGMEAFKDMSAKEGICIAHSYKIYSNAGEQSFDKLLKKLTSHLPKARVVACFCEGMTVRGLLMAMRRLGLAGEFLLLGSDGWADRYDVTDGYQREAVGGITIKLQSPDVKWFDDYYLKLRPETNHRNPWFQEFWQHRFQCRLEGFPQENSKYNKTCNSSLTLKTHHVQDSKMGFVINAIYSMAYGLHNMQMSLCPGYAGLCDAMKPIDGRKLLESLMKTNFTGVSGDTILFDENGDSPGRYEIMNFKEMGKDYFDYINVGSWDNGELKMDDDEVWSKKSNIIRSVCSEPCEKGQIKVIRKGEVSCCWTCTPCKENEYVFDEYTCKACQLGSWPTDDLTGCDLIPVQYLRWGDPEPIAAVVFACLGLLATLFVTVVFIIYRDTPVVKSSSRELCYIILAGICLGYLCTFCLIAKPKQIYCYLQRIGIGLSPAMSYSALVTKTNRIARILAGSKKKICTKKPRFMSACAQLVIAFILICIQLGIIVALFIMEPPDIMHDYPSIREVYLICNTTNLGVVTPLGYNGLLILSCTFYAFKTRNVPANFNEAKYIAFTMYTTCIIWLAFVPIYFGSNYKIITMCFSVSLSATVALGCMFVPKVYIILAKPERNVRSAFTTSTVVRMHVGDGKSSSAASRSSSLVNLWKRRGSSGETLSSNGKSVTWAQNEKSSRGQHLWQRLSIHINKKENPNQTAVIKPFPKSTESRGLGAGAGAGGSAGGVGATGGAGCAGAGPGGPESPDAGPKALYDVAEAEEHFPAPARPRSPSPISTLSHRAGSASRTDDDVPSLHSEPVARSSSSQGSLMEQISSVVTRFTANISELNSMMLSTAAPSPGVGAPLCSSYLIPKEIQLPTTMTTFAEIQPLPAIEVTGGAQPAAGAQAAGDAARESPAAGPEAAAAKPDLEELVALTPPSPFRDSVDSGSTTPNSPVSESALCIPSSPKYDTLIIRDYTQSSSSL

| EC50 (nM) mGlu5 PAM assay [1] | Activity profile [1] | Ki [2] | mGlu5 PAM EC50 [nM] [1] | Compound | further results |
| --- | --- | --- | --- | --- | --- |
| inactive | NAM | 72 nM |  | CC1(C)COCCN1C(=O)c1ccc(C#Cc2cccc(F)c2)cn1 [Example 1, (3,3-Dimethyl-morpholin-4-yl)-[5-(3-fluoro-phenylethynyl)-pyridin-2-yl]-methanone] |  |
| inactive |  |  |  | O=C(c1ccc(C#Cc2cccc(Cl)c2)cn1)N1CCOCC1 [Example 2, [5-(3-Chloro-phenylethynyl)-pyridin-2-yl-morpholin-4-yl]-methanone] |  |
| inactive | NAM | 23 nM |  | CC1(C)COCCN1C(=O)c1ccc(C#Cc2cccc(Cl)c2)cn1 [Example 3, (3,3-Dimethyl-morpholin-4-yl)-[5-(3-chloro-phenylethynyl)-pyridin-2-yl]-methanone] |  |
| inactive | NAM | 67 nM |  | CC1(C)COCCN1C(=O)c1ncc(C#Cc2cccc(Cl)c2)cn1 [Example 4, (3,3-Dimethyl-morpholin-4-yl)-[5-(3-chloro-phenylethynyl)-pyrimidin-2-yl]-methanone] |  |
|  | PAM | 201 nM |  | CC1(C)CN(C(=O)c2ccc(C#Cc3cccc(F)c3)cn2)CCO1 [Ref. 1 Ex. 35, reference compound] |  |
|  | PAM | 315 nM |  | CC1(C)CCCN(C(=O)c2ncc(C#Cc3ccccc3)cn2)C1 [Ref. 1 Ex. 46, reference compound] |  |
|  |  |  |  | CC1(C)CN(C(=O)c2ccc(C#Cc3cccc(F)c3)cn2)CCO1 [drawing 3] | Efficacy [%] [1]: 57% |
|  |  |  |  | CC1(C)CCCN(C(=O)c2ncc(C#Cc3ccccc3)cn2)C1 [drawing 4] | Efficacy [%] [1]: 59% |
|  |  |  | inactive | CC1(C)COCCN1C(=O)c1ccc(C#Cc2cccc(F)c2)cn1 [drawing 5] |  |
|  |  |  | inactive | O=C(c1ccc(C#Cc2cccc(Cl)c2)cn1)N1CCOCC1 [drawing 6] |  |
|  |  |  | inactive | CC1(C)COCCN1C(=O)c1ccc(C#Cc2cccc(Cl)c2)cn1 [drawing 7] |  |
|  |  |  | inactive | CC1(C)COCCN1C(=O)c1ncc(C#Cc2cccc(Cl)c2)cn1 [drawing 8] |  |
